Patent publication US4209443A, “Process for separating pharmaceutically active diindole alkaloids” (priority 1976, dated 1980)
Counter-ions that a name gives are not always drawn.

Assays:
[1] = Toxicity (LD50, i.p., mice); details: mouse, in vivo, ip
[2] = test system: L 1210/Ref (vinca-refractory) mouse lymphoid leukemia; test: Average survival prolongation and tumor-inhibiting effect, L 1210/Ref (vinca-refractory) lymphoid leukemia, i.p.; type: in vivo, mouse (BDF1 mice); details: for On the limit-day (days 36 to day 40): lives / On the limit-day (days 36 to day 40): tumor-free / T/c × 100 / Average survival period, treated: 7 treatments; for Average survival period, treated: control 8.0 days
Experimental: (§1) The pharmacological tests were performed on transplantable tumors of rats and mice. The effects on L 1210/VS(vinca-sensitive) mouse lymphoid leukemia and L 1210/Ref (vinca-refractory) mouse lymphoid leukemia were tested on BDF1 mice, the effects on Ehrlich ascites carcinomatous tumors and S 37 ascites sarcomatous tumors were examined on Swiss mice, whereas the effects on Novikoff hepatoma were examined on Wistar rats.
(§2) The 4-deacetoxy-vinblastine sulfate was dissolved in physiological saline and the solution was administered intraperitoneally into the animals to be tested. In the tests the average prolongation of survival period and the tumor-inhibiting effect were examined in relation to the untreated controls. In the Table the symbol T/c represents the ratio of treated animals to the controls, and the term "number of limit-days" means the fourfold of the average survival period observed in the control group.

Novikoff hepatoma = test: Average survival prolongation and tumor-inhibiting effect, Novikoff hepatoma, i.p.; type: in vivo, rat (Wistar rats); details: for On the limit-day (days 36 to day 40): lives / On the limit-day (days 36 to day 40): tumor-free / T/c × 100 / Average survival period, treated: once a day, 8 treatments
Experimental: as §1, §2

[3] = test system: transplantable tumors of rats and mice; test: Tumor-inhibiting effect on transplantable tumors of rats and mice; type: in vivo
Experimental: as §1, §2

[4] = known vinca alkaloids; cited from earlier work
[5] = test system: tumors resistant towards the cytostatic agents known before; details: Hungarian Patent specification No. 165,986; cited from earlier work
mice = test: Toxicity (LD50, i.p., mice)
in vivo = details: mouse, ip
[6] = test system: L 1210/VS (vinca-sensitive) mouse lymphoid leukemia; test: Average survival prolongation and tumor-inhibiting effect, L 1210/VS (vinca-sensitive) lymphoid leukemia, i.p.; type: in vivo, mouse (BDF1 mice)
Experimental: as §1, §2

HK/Ly ascites lymphoma = test: Average survival prolongation and tumor-inhibiting effect, HK/Ly ascites lymphoma, i.p.; type: in vivo; details: once a day, 8 treatments; for Average survival period, treated: control 14.4 days
Experimental: as §2

[7] = Neurotoxicity accompanied with paralytic symptoms; type: in vivo; details: during administration
S 37 ascites sarcoma = test: Average survival prolongation and tumor-inhibiting effect, S 37 ascites sarcoma, i.p.; type: in vivo, mouse (Swiss mice); details: once a day, 8 treatments; for Average survival period, treated: control 18.2 days
Experimental: as §1, §2

[8] = test system: Ehrlich ascites carcinoma; test: Average survival prolongation and tumor-inhibiting effect, Ehrlich ascites carcinoma, i.p.; type: in vivo, mouse (Swiss mice); details: 3.0 mg/kg i.p., once a day, 9 treatments
Experimental: as §1, §2

[9] = 0.9 mg/kg i.p., once a day, 7 treatments
[10] = 1.8 mg/kg i.p., once a day, 7 treatments
[11] = 2.0 mg/kg i.p., once a day, 16 treatments
[12] = 4.0 mg/kg i.p., once a day, 16 treatments
[13] = 4.0 mg/kg i.p., once in every two days, 8 treatments
[14] = 4.0 mg/kg i.p., once in every two days, 11 treatments
[15] = 5.0 mg/kg i.p., once in every two days, 8 treatments
[16] = 6.0 mg/kg i.p., once in every two days, 8 treatments
[17] = 4.0 mg/kg i.p., once in every two days

CC[C@]1(O)C[C@@H]2CN(CCc3c([nH]c4ccccc34)[C@@](C(=O)OC)(c3cc4c(cc3OC)N(C)[C@@H]3[C@]45CCN4CC=C[C@@](CC)(C[C@]3(O)C(=O)OC)[C@H]45)C2)C1 [4-Deacetoxy-vinblastine, 4-deacetoxy-vinblastine]
LD50 [1]: > 23 mg/kg | sensitivity of L 1210/Ref leukemia ([2]; mouse, in vivo): not sensitive | inhibiting effect on Novikoff hepatoma (Novikoff hepatoma; relative to the other transplanted tumors): most intensive | inhibiting effect on all the other transplanted tumors ([3]; all transplanted tumors other than L 1210/Ref): significant dosage-dependent inhibiting effect

CC[C@]1(O)C[C@H]2CN(CCc3c([nH]c4ccccc34)[C@@](C(=O)OC)(c3cc4c(cc3OC)N(C=O)[C@H]3[C@@](O)(C(=O)OC)[C@H](OC(C)=O)[C@]5(CC)C=CCN6CC[C@]43[C@@H]65)C2)C1 [Vincristine, vincristine, reference compound]
Neurotoxicity accompanied with paralytic symptoms (known side-effect) [4]: characteristic adverse side-effect | LD50 [1]: 4.2 mg/kg

CC[C@]12CN3CCc4c([nH]c5ccccc45)[C@@](C(=O)OC)(c4cc5c(cc4OC)N(C=O)[C@H]4[C@@](O)(C(=O)OC)[C@H](OC(C)=O)[C@]6(CC)C=CCN7CC[C@]54[C@@H]76)C[C@@H](C3)[C@H]1O2 [N-Formyl-leurosine, reference compound]
growth inhibition of tumors resistant towards the cytostatic agents known before [5]: inhibits the growth of tumors resistant towards the cytostatic agents known before | LD50 (mice; i.p., mice): 29.0 mg/kg

CC[C@]1(O)C[C@@H]2CN(CCc3c([nH]c4ccccc34)[C@@](C(=O)OC)(c3cc4c(cc3OC)N(C)[C@H]3[C@@](O)(C(=O)OC)[C@H](OC(C)=O)[C@]5(CC)C=CCN6CC[C@]43[C@@H]65)C2)C1 [Vinblastine, vinblastine]
Neurotoxicity accompanied with paralytic symptoms (known side-effect) [4]: characteristic adverse side-effect | LD50 (in vivo): 7.5 mg/kg

CC[C@]1(O)C[C@@H]2CN(CCc3c([nH]c4ccccc34)[C@@](C(=O)OC)(c3cc4c(cc3OC)N(C)[C@@H]3[C@]45CCN4CC=C[C@@](CC)(C[C@]3(O)C(=O)OC)[C@H]45)C2)C1 [4-deacetoxy-vinblastine sulfate, 4-Deacetoxy-vinblastine sulfate]
toxicity compared with vinblastine (mice; compared with vinblastine): far less toxic than vinblastine | On the limit-day (days 36 to day 40): lives [6, 9]: 0/6 | On the limit-day (days 36 to day 40): tumor-free [6, 9]: 0/6 | T/c × 100 [6, 9]: 128 | Average survival period, treated ([6]; 0.9 mg/kg i.p., once a day, 7 treatments, control 8.8 days): 11.5 days | On the limit-day (days 36 to day 40): lives [6, 10]: 0/6 | On the limit-day (days 36 to day 40): tumor-free [6, 10]: 0/6 | T/c × 100 [6, 10]: 128 | Average survival period, treated ([6]; 1.8 mg/kg i.p., once a day, 7 treatments, control 8.8 days): 11.3 days | On the limit-day (days 36 to day 40): lives [6, 11]: 0/6 | On the limit-day (days 36 to day 40): tumor-free [6, 11]: 0/6 | T/c × 100 [6, 11]: 238 | Average survival period, treated ([6]; 2.0 mg/kg i.p., once a day, 16 treatments, control 10.3 days): 24.5 days | On the limit-day (days 36 to day 40): lives [6, 12]: 0/6 | On the limit-day (days 36 to day 40): tumor-free [6, 12]: 0/6 | T/c × 100 [6, 12]: 269 | Average survival period, treated ([6]; 4.0 mg/kg i.p., once a day, 16 treatments, control 10.3 days): 27.7 days | On the limit-day (days 36 to day 40): lives [6, 13]: 0/6 | On the limit-day (days 36 to day 40): tumor-free [6, 13]: 0/6 | T/c × 100 [6, 13]: 213 | Average survival period, treated ([6]; 4.0 mg/kg i.p., once in every two days, 8 treatments, control 8.3 days): 17.7 days | On the limit-day (days 36 to day 40): lives [6, 14]: 0/6 | On the limit-day (days 36 to day 40): tumor-free [6, 14]: 0/6 | T/c × 100 [6, 14]: 267 | Average survival period, treated ([6]; 4.0 mg/kg i.p., once in every two days, 11 treatments, control 10.3 days): 27.5 days | On the limit-day (days 36 to day 40): lives [6, 15]: 0/6 | On the limit-day (days 36 to day 40): tumor-free [6, 15]: 0/6 | T/c × 100 [6, 15]: 251 | Average survival period, treated ([6]; 5.0 mg/kg i.p., once in every two days, 8 treatments, control 8.3 days): 20.8 days | On the limit-day (days 36 to day 40): lives [6, 16]: 0/6 | On the limit-day (days 36 to day 40): tumor-free [6, 16]: 0/6 | T/c × 100 [6, 16]: 291 | Average survival period, treated ([6]; 6.0 mg/kg i.p., once in every two days, 8 treatments, control 8.3 days): 24.2 days | On the limit-day (days 36 to day 40): lives ([2]; 2.0 mg/kg i.p., once a day): 0/6 | On the limit-day (days 36 to day 40): tumor-free ([2]; 2.0 mg/kg i.p., once a day): 0/6 | T/c × 100 ([2]; 2.0 mg/kg i.p., once a day): 119 | Average survival period, treated ([2]; 2.0 mg/kg i.p., once a day): 9.5 days | On the limit-day (days 36 to day 40): lives ([2]; 4.0 mg/kg i.p., once a day): 0/6 | On the limit-day (days 36 to day 40): tumor-free ([2]; 4.0 mg/kg i.p., once a day): 0/6 | T/c × 100 ([2]; 4.0 mg/kg i.p., once a day): 144 | Average survival period, treated ([2]; 4.0 mg/kg i.p., once a day): 11.5 days | On the limit-day (days 36 to day 40): lives [2, 17]: 0/6 | On the limit-day (days 36 to day 40): tumor-free [2, 17]: 0/6 | T/c × 100 [2, 17]: 146 | Average survival period, treated [2, 17]: 11.7 days | On the limit-day (days 36 to day 40): lives (HK/Ly ascites lymphoma; 2.0 mg/kg i.p.): 0/10 | On the limit-day (days 36 to day 40): tumor-free (HK/Ly ascites lymphoma; 2.0 mg/kg i.p.): 0/10 | T/c × 100 (HK/Ly ascites lymphoma; 2.0 mg/kg i.p.): 334 | Average survival period, treated (HK/Ly ascites lymphoma; 2.0 mg/kg i.p.): 48.1 days | On the limit-day (days 36 to day 40): lives (HK/Ly ascites lymphoma; 4.0 mg/kg i.p.): 6/10 | On the limit-day (days 36 to day 40): tumor-free (HK/Ly ascites lymphoma; 4.0 mg/kg i.p.): 0/10 | T/c × 100 (HK/Ly ascites lymphoma; 4.0 mg/kg i.p.): 382 | Average survival period, treated (HK/Ly ascites lymphoma; 4.0 mg/kg i.p.): 55.0 days | On the limit-day (days 36 to day 40): lives (HK/Ly ascites lymphoma; 6.0 mg/kg i.p.): 0/10 | On the limit-day (days 36 to day 40): tumor-free (HK/Ly ascites lymphoma; 6.0 mg/kg i.p.): 0/10 | T/c × 100 (HK/Ly ascites lymphoma; 6.0 mg/kg i.p.): 328 | Average survival period, treated (HK/Ly ascites lymphoma; 6.0 mg/kg i.p.): 47.2 days | Neurotoxicity accompanied with paralytic symptoms [7]: does not appear at all | On the limit-day (days 36 to day 40): lives (S 37 ascites sarcoma; 1.8 mg/kg i.p.): 6/8 | On the limit-day (days 36 to day 40): tumor-free (S 37 ascites sarcoma; 1.8 mg/kg i.p.): 6/8 | T/c × 100 (S 37 ascites sarcoma; 1.8 mg/kg i.p.): 376 | Average survival period, treated (S 37 ascites sarcoma; 1.8 mg/kg i.p.): 68.5 days | On the limit-day (days 36 to day 40): lives (S 37 ascites sarcoma; 2.7 mg/kg i.p.): 7/10 | On the limit-day (days 36 to day 40): tumor-free (S 37 ascites sarcoma; 2.7 mg/kg i.p.): 7/10 | T/c × 100 (S 37 ascites sarcoma; 2.7 mg/kg i.p.): 373 | Average survival period, treated (S 37 ascites sarcoma; 2.7 mg/kg i.p.): 67.9 days | On the limit-day (days 36 to day 40): lives (Novikoff hepatoma; 0.5 mg/kg i.p.): 0/6 | On the limit-day (days 36 to day 40): tumor-free (Novikoff hepatoma; 0.5 mg/kg i.p.): 0/6 | T/c × 100 (Novikoff hepatoma; 0.5 mg/kg i.p.): 126 | Average survival period, treated (Novikoff hepatoma; 0.5 mg/kg i.p., control 8.2 days): 10.3 days | On the limit-day (days 36 to day 40): lives (Novikoff hepatoma; 1.0 mg/kg i.p.): 1/6 | On the limit-day (days 36 to day 40): tumor-free (Novikoff hepatoma; 1.0 mg/kg i.p.): 1/6 | T/c × 100 (Novikoff hepatoma; 1.0 mg/kg i.p.): 338 | Average survival period, treated (Novikoff hepatoma; 1.0 mg/kg i.p., control 8.2 days): 27.7 days | On the limit-day (days 36 to day 40): lives (Novikoff hepatoma; 1.5 mg/kg i.p.): 2/6 | On the limit-day (days 36 to day 40): tumor-free (Novikoff hepatoma; 1.5 mg/kg i.p.): 0/6 | T/c × 100 (Novikoff hepatoma; 1.5 mg/kg i.p.): 317 | Average survival period, treated (Novikoff hepatoma; 1.5 mg/kg i.p., control 7.8 days): 24.7 days | tumor-inhibiting effects compared with vinblastine ([3]; compared with vinblastine): roughly identical with those of vinblastine | On the limit-day (days 36 to day 40): lives [8]: 10/10 | On the limit-day (days 36 to day 40): tumor-free [8]: 6/10 | T/c × 100 [8]: 174 | Average survival period, treated ([8]; control 17.4 days): 30 days
